Results reported in BindingDB's records for doi:10.7270/Q2154FH8 (Burnham Center For Chemical Genomics, 2010).

Target: Intestinal-type alkaline phosphatase (Homo sapiens, UniProt P09923)
Test: inhibition of human intestinal alkaline phosphatase – biochemical, luminescent, uHTS hits, set 2, dose response (AID 488793)

Intestinal-type alkaline phosphatase, sequence (P09923 whole entry): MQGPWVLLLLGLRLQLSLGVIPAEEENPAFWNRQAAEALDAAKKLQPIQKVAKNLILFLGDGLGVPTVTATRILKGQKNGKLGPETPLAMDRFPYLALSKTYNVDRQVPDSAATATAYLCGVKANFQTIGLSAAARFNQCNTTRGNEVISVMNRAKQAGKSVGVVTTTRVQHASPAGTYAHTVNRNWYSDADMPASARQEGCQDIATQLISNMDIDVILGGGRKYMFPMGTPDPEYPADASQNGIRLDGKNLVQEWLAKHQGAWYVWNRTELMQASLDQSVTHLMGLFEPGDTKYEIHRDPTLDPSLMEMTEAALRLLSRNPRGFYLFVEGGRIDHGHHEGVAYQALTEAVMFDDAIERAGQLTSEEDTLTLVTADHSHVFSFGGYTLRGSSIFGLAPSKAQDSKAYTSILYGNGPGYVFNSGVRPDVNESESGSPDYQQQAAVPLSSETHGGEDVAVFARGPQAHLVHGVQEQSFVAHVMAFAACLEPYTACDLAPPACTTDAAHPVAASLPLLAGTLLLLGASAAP

IC50 [µM] | SMILES
77.3 | CC(N=Nc1ccccc1[N+](=O)[O-])c1ccc([N+](=O)[O-])cc1 (centres undefined)
35.8 | CCOC1=CC(=Cc2c(C)[nH]oc2=O)C=C(Br)C1=O [4-[(Z)-(3-bromo-5-ethoxy-4-oxo-1-cyclohexa-2,5-dienylidene)methyl]-3-methyl-2H-isoxazol-5-one]
39.4 | C=c1[nH]n(Cc2ccccc2)c(=O)c1=Cc1ccc(N(C)C)cc1 [(4Z)-4-[[4-(dimethylamino)phenyl]methylidene]-5-methyl-2-(phenylmethyl)-3-pyrazolone]
0.891 | O=C(O)[C@H]1O[C@@H](Oc2c(-c3ccc(O)c(O)c3)oc3cc(O)cc(=O)c-3c2O)[C@H](O)[C@@H](O)[C@@H]1O [quercetin glucuronide]
